# Assay results as given in paper PMC5235360 (Biochemistry, 2016).
# Biological target: bsLDH (Geobacillus stearothermophilus, UniProt P00344)
# Assay type: binding
# bsLDH, sequence (P00344 whole entry): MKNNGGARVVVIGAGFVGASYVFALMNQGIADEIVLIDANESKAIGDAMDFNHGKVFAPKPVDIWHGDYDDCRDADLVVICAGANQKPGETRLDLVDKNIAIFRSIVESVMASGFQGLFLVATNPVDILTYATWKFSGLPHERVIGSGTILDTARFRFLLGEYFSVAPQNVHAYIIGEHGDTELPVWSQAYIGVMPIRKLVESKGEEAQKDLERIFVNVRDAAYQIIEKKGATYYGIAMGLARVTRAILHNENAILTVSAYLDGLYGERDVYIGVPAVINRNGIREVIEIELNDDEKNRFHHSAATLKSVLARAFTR
compound,measurement,value
NC(=O)C1=CN([C@@H]2O[C@H](COP(=O)(O)OP(=O)(O)OC[C@H]3O[C@@H](n4cnc5c(N)ncnc54)[C@H](O)[C@@H]3O)[C@@H](O)[C@H]2O)C=CC1 [NADH],Kd,1.3 ± 0.7 µM
